The subject of the assay is C. albicans (CA-1, Strain SLU-1). Description: Radial diffusion assay. In kind it is cell-based, Candida albicans. To be noted: for Plate Assay (nmol), pure peptide activity: HPLC-purified peptide; for Plate Assay (nmol), pure peptide activity / Plate Assay (nmol), crude peptide activity: nanomoles required to achieve a net 30 mm^2 zone (log titration curve); for C. albicans pmol/30 mm^2 zone: pmoles of peptide added to well to achieve a 30 mm^2 zone, PROBIT analysis, crude or purified (P′) peptide. Here is the method:
In the radial diffusion assay procedures, the CA-1 cultures and peptide solutions were prepared as in the broth assay procedure described above. Ten mL of molten underlayer agarose comprising 3% Sabouraud Dextrose broth, 1% agarose (Pharmacia, Piscataway, N.J.), 0.02% Tween 20, and 10 mM sodium phosphate at pH 7.4, was added to polystyrene tubes and maintained in a 56° C. water bath until the addition of yeast. Tubes were cooled to approximately 45° C., yeast were added to give a final concentration of 1×10^6 CFU/mL, and the tubes were mixed again by inverting. The contents were poured into level square petri dishes and distributed evenly. […] A series of wells were punched into the hardened agarose using a sterile 3 mm punch attached to a vacuum apparatus.
Peptides to be assayed were 2-fold serially diluted in Dulbecco's PBS (D-PBS) starting from a concentration of approximately 1 mg/mL. Five μL of each dilution were added to each well and the plates were incubated at 37° C. for 3 hours. An overlayer of 10 mL of molten agarose comprising 6% Sabouraud Dextrose broth, 1% agarose, and 10 mM sodium phosphate, pH 7.4, (at approximately 45° C.) was then added and plates were incubated overnight at 37° C. Following this overnight incubation, a dilute Coomassie solution was poured into the plates and allowed to stain for 24 hours.
Clear zones of growth inhibition around each well were measured with calipers. The actual area of growth inhibition (mm^2) was calculated by subtracting the area of the well. Table 1 below sets out the results of the radial diffusion assays for tested peptides in terms of the number of picomoles (pmol) of peptide required to establish a 30 mm^2 area of growth inhibition calculated by PROBIT analysis (e.g., calculated from regression of the linear portion of log-concentration dose-response curve, log pmol/well vs. net area of inhibition).

Square brackets hold non-standard residues; d marks the D form. Peptide text beside a SMILES is read from it. Phe(4-NH2) = Nc1ccc(C[C@H](N)C(=O)O)cc1; 1Nal = N[C@@H](Cc1cccc2ccccc12)C(=O)O; 2Nal = N[C@@H](Cc1ccc2ccccc2c1)C(=O)O; d1Nal = N[C@H](Cc1cccc2ccccc12)C(=O)O; d2Nal = N[C@H](Cc1ccc2ccccc2c1)C(=O)O; Cha = N[C@@H](CC1CCCCC1)C(=O)O

With `CC[C@H](C)[C@H](NC(=O)[C@H](CC(C)C)NC(=O)[C@H](Cc1c[nH]c2ccccc12)NC(=O)[C@@H](N)CCCCN)C(=O)N[C@@H](CCC(N)=O)C(=O)N[C@@H](CC(C)C)C(=O)N[C@@H](Cc1ccccc1)C(=O)N[C@@H](Cc1c[nH]cn1)C(=O)N[C@@H](CCCCN)C(=O)N[C@@H](CCCCN)C(N)=O` [Peptide 293], the “Plate Assay (nmol), pure peptide activity” value came out at 0.215 nmol and the “Plate Assay (nmol), crude peptide activity” value is on record as 1.156 nmol.
For `CC[C@H](C)[C@H](NC(=O)[C@H](CC(C)C)NC(=O)[C@H](Cc1c[nH]c2ccccc12)NC(=O)[C@@H](N)CCCCN)C(=O)N[C@@H](CCC(N)=O)C(=O)N[C@@H](CC(C)C)C(=O)N[C@@H](Cc1ccccc1)C(=O)N[C@@H](Cc1c[nH]cn1)C(=O)N[C@@H](CCCCN)C(N)=O` [Peptide 297], in that order: 0.564 nmol and 1.817 nmol.
For `CC[C@H](C)[C@H](NC(=O)[C@H](CC(C)C)NC(=O)[C@@H](N)Cc1c[nH]c2ccccc12)C(=O)N[C@@H](CCC(N)=O)C(=O)N[C@@H](CC(C)C)C(=O)N[C@@H](Cc1ccccc1)C(=O)N[C@@H](Cc1c[nH]cn1)C(=O)N[C@@H](CCCCN)C(=O)N[C@@H](CCCCN)C(N)=O` [Peptide 298], in that order: 1.106 nmol and 2.628 nmol.
Regarding `CC[C@H](C)[C@H](NC(=O)[C@H](CC(C)C)NC(=O)[C@@H](N)Cc1c[nH]c2ccccc12)C(=O)N[C@@H](CCC(N)=O)C(=O)N[C@@H](CC(C)C)C(=O)N[C@@H](Cc1ccccc1)C(=O)N[C@@H](Cc1c[nH]cn1)C(=O)N[C@@H](CCCCN)C(N)=O` [Peptide 303], the “Plate Assay (nmol), pure peptide activity” value is recorded as 1.306 nmol and the “Plate Assay (nmol), crude peptide activity” value is given as above 4.694 nmol.
With `CC[C@H](C)[C@H](NC(=O)[C@H](CC(C)C)NC(=O)[C@H](Cc1cccc2ccccc12)NC(=O)CNC(=O)[C@@H](NC(=O)[C@H](CCCCN)NC(=O)[C@H](CO)NC(=O)[C@@H](N)CCCCN)C(C)C)C(=O)N[C@@H](CCC(N)=O)C(=O)N[C@@H](CC(C)C)C(=O)N[C@@H](Cc1ccccc1)C(=O)N[C@@H](Cc1c[nH]cn1)C(=O)N[C@@H](CCCCN)C(=O)N[C@@H](CCCCN)C(N)=O` [XMP.83] (H-KSKVG[1Nal]LIQLFHKK-NH2), the “C. albicans pmol/30 mm^2 zone” value turned out to be 1804 pmol/30 mm^2 zone.
On to `CC[C@H](C)[C@H](NC(=O)[C@H](CC(C)C)NC(=O)[C@H](Cc1c[nH]c2ccccc12)NC(=O)CNC(=O)[C@@H](NC(=O)[C@H](CCCCN)NC(=O)[C@H](CO)NC(=O)[C@@H](N)CCCCN)C(C)C)C(=O)N[C@@H](CCC(N)=O)C(=O)N[C@@H](CC(C)C)C(=O)N[C@@H](Cc1cccc2ccccc12)C(=O)N[C@@H](Cc1c[nH]cn1)C(=O)N[C@@H](CCCCN)C(=O)N[C@@H](CCCCN)C(N)=O` [XMP.109] (H-KSKVGWLIQL[1Nal]HKK-NH2), for which the “C. albicans pmol/30 mm^2 zone” value is given as above 2839 pmol/30 mm^2 zone.
With `CC[C@H](C)[C@H](NC(=O)[C@H](CC(C)C)NC(=O)[C@H](Cc1c[nH]c2ccccc12)NC(=O)CNC(=O)[C@@H](NC(=O)[C@H](CCCCN)NC(=O)[C@H](CO)NC(=O)[C@@H](N)CCCCN)C(C)C)C(=O)N[C@@H](CCC(N)=O)C(=O)N[C@@H](CC(C)C)C(=O)N[C@@H](Cc1ccccc1)C(=O)N[C@@H](Cc1cccc2ccccc12)C(=O)N[C@@H](CCCCN)C(=O)N[C@@H](CCCCN)C(N)=O` [XMP.110] (H-KSKVGWLIQLF[1Nal]KK-NH2), the “C. albicans pmol/30 mm^2 zone” value was above 2922 pmol/30 mm^2 zone.
Consider `CC[C@H](C)[C@H](NC(=O)[C@H](CC(C)C)NC(=O)[C@H](Cc1c[nH]c2ccccc12)NC(=O)CNC(=O)[C@@H](NC(=O)[C@H](CCCCN)NC(=O)[C@H](CO)NC(=O)[C@@H](N)CCCCN)C(C)C)C(=O)N[C@@H](CCC(N)=O)C(=O)N[C@@H](CC(C)C)C(=O)N[C@@H](Cc1ccccc1)C(=O)N[C@@H](Cc1c[nH]cn1)C(=O)N[C@@H](CCCCN)C(=O)N[C@@H](Cc1cccc2ccccc12)C(N)=O` [XMP.111] (H-KSKVGWLIQLFHK[1Nal]-NH2), for which the “C. albicans pmol/30 mm^2 zone” value is reported as above 2809 pmol/30 mm^2 zone.
The same measure, in the same setting: as for `CC[C@H](C)[C@H](NC(=O)[C@H](CC(C)C)NC(=O)[C@H](Cc1cccc2ccccc12)NC(=O)[C@H](CCCCN)NC(=O)[C@@H](NC(=O)[C@H](CCCCN)NC(=O)[C@H](CO)NC(=O)[C@@H](N)CCCCN)C(C)C)C(=O)N[C@@H](CCC(N)=O)C(=O)N[C@@H](CC(C)C)C(=O)N[C@@H](Cc1ccccc1)C(=O)N[C@@H](Cc1c[nH]cn1)C(=O)N[C@@H](CCCCN)C(=O)N[C@@H](CCCCN)C(N)=O` [XMP.116] (H-KSKVK[1Nal]LIQLFHKK-NH2), the figure is 670 pmol/30 mm^2 zone; as for `CC[C@H](C)[C@H](NC(=O)[C@H](CC(C)C)NC(=O)[C@H](Cc1c[nH]c2ccccc12)NC(=O)CNC(=O)[C@@H](NC(=O)[C@H](CCCCN)NC(=O)[C@H](CO)NC(=O)[C@@H](N)CCCCN)C(C)C)C(=O)N[C@@H](Cc1ccc(N)cc1)C(=O)N[C@@H](CC(C)C)C(=O)N[C@@H](Cc1ccccc1)C(=O)N[C@@H](Cc1c[nH]cn1)C(=O)N[C@@H](CCCCN)C(=O)N[C@@H](CCCCN)C(N)=O` [XMP.123] (H-KSKVGWLI[Phe(4-NH2)]LFHKK-NH2), 1721 pmol/30 mm^2 zone; as for `CC[C@H](C)[C@H](NC(=O)[C@H](CC(C)C)NC(=O)[C@@H](Cc1c[nH]c2ccccc12)NC(=O)CNC(=O)[C@@H](NC(=O)[C@H](CCCCN)NC(=O)[C@H](CO)NC(=O)[C@@H](N)CCCCN)C(C)C)C(=O)N[C@@H](CCC(N)=O)C(=O)N[C@@H](CC(C)C)C(=O)N[C@@H](Cc1ccccc1)C(=O)N[C@@H](Cc1c[nH]cn1)C(=O)N[C@@H](CCCCN)C(=O)N[C@@H](CCCCN)C(N)=O` [XMP.126] (H-KSKVG[dW]LIQLFHKK-NH2), 1404 pmol/30 mm^2 zone.
As for `CC[C@H](C)[C@H](NC(=O)[C@H](CC(C)C)NC(=O)[C@@H](Cc1ccccc1)NC(=O)CNC(=O)[C@@H](NC(=O)[C@H](CCCCN)NC(=O)[C@H](CO)NC(=O)[C@@H](N)CCCCN)C(C)C)C(=O)N[C@@H](CCC(N)=O)C(=O)N[C@@H](CC(C)C)C(=O)N[C@@H](Cc1ccccc1)C(=O)N[C@@H](Cc1c[nH]cn1)C(=O)N[C@@H](CCCCN)C(=O)N[C@@H](CCCCN)C(N)=O` [XMP.128], the “C. albicans pmol/30 mm^2 zone” value worked out at 1179 pmol/30 mm^2 zone.
Consider `CC[C@H](C)[C@H](NC(=O)[C@H](CC(C)C)NC(=O)[C@@H](Cc1cccc2ccccc12)NC(=O)CNC(=O)[C@@H](NC(=O)[C@H](CCCCN)NC(=O)[C@H](CO)NC(=O)[C@@H](N)CCCCN)C(C)C)C(=O)N[C@@H](CCC(N)=O)C(=O)N[C@@H](CC(C)C)C(=O)N[C@@H](Cc1ccccc1)C(=O)N[C@@H](Cc1c[nH]cn1)C(=O)N[C@@H](CCCCN)C(=O)N[C@@H](CCCCN)C(N)=O` [XMP.129] (H-KSKVG[d1Nal]LIQLFHKK-NH2), for which the “C. albicans pmol/30 mm^2 zone” value was determined as 2117 pmol/30 mm^2 zone.
For the compound `CC[C@H](C)[C@H](NC(=O)[C@H](CC(C)C)NC(=O)[C@H](Cc1ccc2ccccc2c1)NC(=O)CNC(=O)[C@@H](NC(=O)[C@H](CCCCN)NC(=O)[C@H](CO)NC(=O)[C@@H](N)CCCCN)C(C)C)C(=O)N[C@@H](CCC(N)=O)C(=O)N[C@@H](CC(C)C)C(=O)N[C@@H](Cc1ccccc1)C(=O)N[C@@H](Cc1c[nH]cn1)C(=O)N[C@@H](CCCCN)C(=O)N[C@@H](CCCCN)C(N)=O` [XMP.130] (H-KSKVG[2Nal]LIQLFHKK-NH2), the “C. albicans pmol/30 mm^2 zone” value was 1159 pmol/30 mm^2 zone.
Still for that read-out and setting: the figure for `CC[C@H](C)[C@H](NC(=O)[C@H](CC(C)C)NC(=O)[C@@H](Cc1ccc2ccccc2c1)NC(=O)CNC(=O)[C@@H](NC(=O)[C@H](CCCCN)NC(=O)[C@H](CO)NC(=O)[C@@H](N)CCCCN)C(C)C)C(=O)N[C@@H](CCC(N)=O)C(=O)N[C@@H](CC(C)C)C(=O)N[C@@H](Cc1ccccc1)C(=O)N[C@@H](Cc1c[nH]cn1)C(=O)N[C@@H](CCCCN)C(=O)N[C@@H](CCCCN)C(N)=O` [XMP.131] (H-KSKVG[d2Nal]LIQLFHKK-NH2) is 2493 pmol/30 mm^2 zone; for `CC[C@H](C)[C@H](NC(=O)[C@H](CC(C)C)NC(=O)[C@H](Cc1c[nH]c2ccccc12)NC(=O)[C@H](Cc1ccc(N)cc1)NC(=O)[C@@H](NC(=O)[C@H](CCCCN)NC(=O)[C@H](CO)NC(=O)[C@@H](N)CCCCN)C(C)C)C(=O)N[C@@H](CCC(N)=O)C(=O)N[C@@H](CC(C)C)C(=O)N[C@@H](Cc1ccccc1)C(=O)N[C@@H](Cc1c[nH]cn1)C(=O)N[C@@H](CCCCN)C(=O)N[C@@H](CCCCN)C(N)=O` [XMP.134] it is 1255 pmol/30 mm^2 zone.
On to `CC[C@H](C)[C@H](NC(=O)[C@H](CC(C)C)NC(=O)[C@H](CC1CCCCC1)NC(=O)CNC(=O)[C@@H](NC(=O)[C@H](CCCCN)NC(=O)[C@H](CO)NC(=O)[C@@H](N)CCCCN)C(C)C)C(=O)N[C@@H](CCC(N)=O)C(=O)N[C@@H](CC(C)C)C(=O)N[C@@H](Cc1ccccc1)C(=O)N[C@@H](Cc1c[nH]cn1)C(=O)N[C@@H](CCCCN)C(=O)N[C@@H](CCCCN)C(N)=O` [XMP.144] (H-KSKVG[Cha]LIQLFHKK-NH2), for which the “C. albicans pmol/30 mm^2 zone” value came to 695 pmol/30 mm^2 zone.

The record behind these values is US6664231B1, “Anti-fungal peptides” (priority 1993, dated 2003).
